# Columns and labels:
# Type in all cases: biochemical
# [1] = tested on: T1, UGT enzymes of human liver microsomes; assay: Inhibition of 2ME2 glucuronidation (MG1, MG2) in human liver microsomes; conditions: liver 062101, 2ME2 50 μM
# T1 construct: other: liver 062101
# From the text: (§1) Compounds were eluted using a binary solvent gradient system where solvent A was dilute phosphoric acid (pH 3) and solvent B was 80:20 acetonitrile-methanol. […] Detection was at 280 nm.
# [2] = tested on: UGT enzymes of pooled human jejunum microsomes; assay: Inhibition of estradiol (E2) glucuronidation in pooled human jejunum microsomes; conditions: jejunum HJ61; E2 50 μM; inhibitor 50 μM
# From the text: as §1
# [3] = tested on: T2, UGT enzymes of human liver microsomes; assay: Inhibition of labetalol glucuronidation (LG1, LG2) in human liver microsomes; conditions: labetalol 50 μM; inhibitor 100 μM
# T2 construct: residual metabolism (percentage of control), labetalol LG1; other: labetalol 50 μM; residual metabolism (percentage of control), labetalol LG1; residual metabolism (percentage of control), labetalol LG2; inhi
# Method: Supernatants were analyzed by HPLC with fluorescence detection.
# Compounds were eluted using a binary solvent gradient system where solvent A was 5:5:90 tetrahydrofuran-acetonitrile-(NH4)2HPO4 50 mM, while solvent B was 25:25:50 tetrahydrofuran-acetonitrile-(NH4)2HPO4 50 mM. Solvent flow rate was 0.75 ml/min and the column temperature was ambient. […] Labetalol and metabolites were measured by fluorescence detection using a Jasco model FP920 detector. Excitation and emission wavelengths were 370 nm 418 nm respectively. Retention times for salicylamide internal standard and labetalol were 6.6 min and 15.0 min respectively.
# [4] = tested on: UGT enzymes of pooled human jejunum microsomes; assay: Inhibition of raloxifene glucuronidation (G1, G2) in pooled human jejunum microsomes; conditions: jejunum HJ61; inhibitor 50 μM
# Method: (§2) Compounds were eluted using a binary solvent gradient system. […] Solvent B was methanol. […] Detection was at 280 nm.
# Standardized incubations utilized […] microsomal protein, 1 mM UDPGA and a 30 min incubation time.
# [5] = tested on: UGT enzymes of human liver microsomes; assay: Inhibition of raloxifene glucuronidation (G1, G2) in human liver microsomes; conditions: for % of control metabolism (SD, n = 3), raloxifene glucuronide G1 / % of control metabolism (SD, n = 3), raloxifene glucuronide G2: human liver microsomes 250 μg/ml, 15 min
# From the text: as §2
# [6] = inhibitor 10 μM, raloxifene 50 μM
# [7] = inhibitor 25 μM, raloxifene 50 μM
# [8] = inhibitor 50 μM, raloxifene 50 μM
# [9] = inhibitor 100 μM, raloxifene 50 μM
# [10] = inhibitor 500 μM, raloxifene 50 μM
# [11] = liver lot 032101, inhibitor 50 μM
# [12] = liver lot 062101, inhibitor 50 μM
# [13] = liver lot 083000, inhibitor 50 μM
# [14] = raloxifene 50 μM, inhibitor 10 μM
# [15] = raloxifene 50 μM, inhibitor 25 μM
# [16] = raloxifene 50 μM, inhibitor 50 μM
# [17] = raloxifene 50 μM, inhibitor 100 μM
compound,measurement,setting,value
O=C(O[C@@H]1Cc2c(O)cc(O)cc2O[C@@H]1c1ccc(O)c(O)c1)c1cc(O)c(O)c(O)c1 [Epicatechin gallate],"residual metabolism (% of control), 2ME2 MG1",[1]; inhibitor 25 μM,47 (1) %
same,"residual metabolism (% of control), 2ME2 MG2",[1]; inhibitor 25 μM,79 (2) %
same,"residual metabolism (% of control), 2ME2 MG1",[1]; inhibitor 50 μM,33 (1) %
same,"residual metabolism (% of control), 2ME2 MG2",[1]; inhibitor 50 μM,69 (2) %
same,"residual metabolism (% of control), 2ME2 MG1",[1]; inhibitor 100 μM,17 (1) %
same,"residual metabolism (% of control), 2ME2 MG2",[1]; inhibitor 100 μM,58 (1) %
same,"residual metabolism (% of control), E2-3-β-D-glucuronide",[2],26 (1) %
same,"residual metabolism (% of control), E2-17-β-D-glucuronide",[2],61 (4) %
same,"residual metabolism (percentage of control), labetalol LG1",[3],74 (1) %
same,"residual metabolism (percentage of control), labetalol LG2",[3],86 (2) %
same,"% of control metabolism, raloxifene G1",[4],34 (3) %
same,"% of control metabolism, raloxifene G2",[4],40 (3) %
same,"% of control metabolism (SD, n = 3), raloxifene glucuronide G1",[5]; [6],77 (4) %
same,"% of control metabolism (SD, n = 3), raloxifene glucuronide G1",[5]; [7],48 (4) %
same,"% of control metabolism (SD, n = 3), raloxifene glucuronide G1",[5]; [8],37 (3) %
same,"% of control metabolism (SD, n = 3), raloxifene glucuronide G1",[5]; [9],20 (0) %
same,"% of control metabolism (SD, n = 3), raloxifene glucuronide G1",[5]; [10],0 (0) %
same,"% of control metabolism (SD, n = 3), raloxifene glucuronide G2",[5]; [6],73 (4) %
same,"% of control metabolism (SD, n = 3), raloxifene glucuronide G2",[5]; [7],55 (5) %
same,"% of control metabolism (SD, n = 3), raloxifene glucuronide G2",[5]; [8],43 (4) %
same,"% of control metabolism (SD, n = 3), raloxifene glucuronide G2",[5]; [9],24 (2) %
same,"% of control metabolism (SD, n = 3), raloxifene glucuronide G2",[5]; [10],0 (0) %
same,"% of control metabolism, raloxifene G1",[5]; [11],47 (4) %
same,"% of control metabolism, raloxifene G2",[5]; [11],45 (2) %
same,"% of control metabolism, raloxifene G1",[5]; [12],63 (4) %
same,"% of control metabolism, raloxifene G2",[5]; [12],37 (2) %
same,"% of control metabolism, raloxifene G1",[5]; [13],37 (3) %
same,"% of control metabolism, raloxifene G2",[5]; [13],43 (4) %
same,"% of control metabolism, raloxifene G1",[5]; [14],77 (4) %
same,"% of control metabolism, raloxifene G2",[5]; [14],73 (4) %
same,"% of control metabolism, raloxifene G1",[5]; [15],48 (4) %
same,"% of control metabolism, raloxifene G2",[5]; [15],55 (5) %
same,"% of control metabolism, raloxifene G1",[5]; [16],37 (3) %
same,"% of control metabolism, raloxifene G2",[5]; [16],43 (4) %
same,"% of control metabolism, raloxifene G1",[5]; [17],20 (0) %
same,"% of control metabolism, raloxifene G2",[5]; [17],24 (2) %

# — patent US20030215462A1, “Use of UGT inhibitors to increase bioavailability” (priority 2001, published 2003)
